According to patent US9145425B2, “Cephem compound having catechol group” (SHIONOGI & CO., LTD., priority 2010, dated 2015):
In brackets after ≈: the same amount, converted by molar mass. Where two headings read alike, the source gives them in different places.

Key:
Assay type in all cases: cell-based
[1] = system: Stenotrophomonas maltophilia SR21970; assay: Minimum Inhibitory Concentration (MIC), agar plate incubation, CLSI method
Experimental: (§1) The antimicrobial activity in vitro of the present compound (I) was determined.
Measurement of Minimum Inhibitory Concentration (MIC, μg/ml) was conducted according to the CLSI (Clinical and Laboratory Standards Institute) and the amount of bacteria for inoculation was 10000 cfu/spot, and Mueller-Hinton agar medium was used as the test medium, and conducted using agar plate incubation.
(§2) In the tables, the unit of the values of inhibitory activity is μg/ml.

[2] = system: Klebsiella pneumoniae ATCC 700603; assay: Minimum Inhibitory Concentration (MIC), agar plate incubation, Japan Society for Chemotherapy standard method
Experimental: as §1
(§3) Measurement of Minimum Inhibitory Concentration (MIC, μg/ml) was conducted according to the standard method of the Japan Society for Chemotherapy and the amount of bacteria for inoculation was 1000 cfu/spot, and sensitive disc medium was used as the test medium, and conducted using agar plate incubation.
as §2

[3] = system: Acinetobacter baumannii SR24396; assay: as above
Experimental: as §1, §3, §2

[4] = system: Pseudomonas aeruginosa SR24; assay: as above; conditions: Pseudomonas aeruginosa SR24, no enzyme, ceftazidime sensitive strain, 1000 cfu/spot, sensitive disc medium; for MIC: read-out: Minimum Inhibitory Concentration (MIC)
Experimental: as §1, §3, §2

[5] = system: Pseudomonas aeruginosa SR27060; assay: as above
Experimental: as §1, §3, §2

[6] = Stenotrophomonas maltophilia SR21970, L-1, MBL producer strain (carbapenem resistant strain), 10000 cfu/spot, Mueller-Hinton agar medium, read-out: Minimum Inhibitory Concentration (MIC)
[7] = ATCC700603, Klebsiella pneumoniae ATCC 700603, SHV-18, ESBL producer strain, 1000 cfu/spot, sensitive disc medium, read-out: Minimum Inhibitory Concentration (MIC)
[8] = Acinetobacter baumannii SR24396, no enzyme, 1000 cfu/spot, sensitive disc medium, read-out: Minimum Inhibitory Concentration (MIC)
[9] = Pseudomonas aeruginosa SR27060, IMP-1, MBL producer strain (carbapenem resistant strain), 1000 cfu/spot, sensitive disc medium, read-out: Minimum Inhibitory Concentration (MIC)
[10] = Stenotrophomonas maltophilia SR21970, L-1, MBL producer strain (carbapenem resistant strain), 10000 cfu/spot, Mueller-Hinton agar medium
[11] = Klebsiella pneumoniae ATCC 700603, SHV-18, ESBL producer strain, 1000 cfu/spot, sensitive disc medium
[12] = Acinetobacter baumannii SR24396, no enzyme, 1000 cfu/spot, sensitive disc medium
[13] = Pseudomonas aeruginosa SR27060, IMP-1, MBL producer strain (carbapenem resistant strain), 1000 cfu/spot, sensitive disc medium
[14] = Stenotrophomonas maltophilia, SR21970, read-out: Minimum Inhibitory Concentration (MIC)
[15] = Klebsiella pneumoniae, ATCC700603, read-out: Minimum Inhibitory Concentration (MIC)
[16] = Acinetobacter baumannii, SR24396, read-out: Minimum Inhibitory Concentration (MIC)
[17] = Pseudomonas aeruginosa, SR27060, read-out: Minimum Inhibitory Concentration (MIC)

Minimum Inhibitory Concentration (MIC) [1, 10] [µg/mL]	Minimum Inhibitory Concentration (MIC) [2, 11] [µg/mL]	Minimum Inhibitory Concentration (MIC) [3, 12] [µg/mL]	Minimum Inhibitory Concentration (MIC) [4] [µg/mL]	Minimum Inhibitory Concentration (MIC) [5, 13] [µg/mL]	SMILES	also measured
1	0.25	0.25	0.063	0.5	CC(C)(ON=C(C(=O)NC1C(=O)N2C(C(=O)[O-])=C(C[N+]34CCCC3CN(C(=O)c3ccc(O)c(O)c3Cl)CC4)CSC12)c1csc(N)n1)C(=O)[O-].[Na+] (centres unmarked) [Compound I-15]	
1	0.5	0.125	0.063	0.5	CC(ON=C(C(=O)NC1C(=O)N2C(C(=O)[O-])=C(C[N+]34CCC(CC3)N(C(=O)c3ccc(O)c(O)c3Cl)CC4)CSC12)c1csc(N)n1)C(=O)[O-].[Na+] (centres unmarked) [Compound I-23]	
1	1	0.25	0.063	0.5	CC(C)(ON=C(C(=O)NC1C(=O)N2C(C(=O)[O-])=C(C[N+]34CCCC3CN(C(=O)c3ccc(O)c(O)c3Cl)CC4)CSC12)c1csc(N)n1)C(=O)[O-].[Na+] (centres unmarked) [Compound I-31]	
0.5	0.5	0.125	0.063	0.5	CC(C)(O/N=C(\C(=O)N[C@@H]1C(=O)N2C(C(=O)[O-])=C(C[N+]34CCC(CC3)N(C(=O)c3ccc(O)c(O)c3Cl)CC4)CS[C@H]12)c1nsc(N)n1)C(=O)[O-].[Na+] [Compound I-34]	
1	1	0.5	0.063	0.25	CC(ON=C(C(=O)NC1C(=O)N2C(C(=O)[O-])=C(C[N+]34CCC(CNC(=O)c5ccc(O)c(O)c5Cl)(CC3)CC4)CSC12)c1csc(N)n1)C(=O)[O-].[Na+] (centres unmarked) [Compound I-35]	
1	0.5	0.125	0.125	1	CCC(ON=C(C(=O)NC1C(=O)N2C(C(=O)[O-])=C(C[N+]34CCCC3CN(C(=O)c3ccc(O)c(O)c3Cl)CC4)CSC12)c1csc(N)n1)C(=O)[O-].[Na+] (centres unmarked) [Compound I-37]	
1	1	0.25	0.125	2	NC(=O)CC(ON=C(C(=O)NC1C(=O)N2C(C(=O)[O-])=C(C[N+]34CCCC3CN(C(=O)c3ccc(O)c(O)c3Cl)CC4)CSC12)c1csc(N)n1)C(=O)[O-].[Na+] (centres unmarked) [Compound I-38]	
1	0.5	0.125	0.125	0.5	C[N+]1(CC2=C(C(=O)[O-])N3C(=O)C(NC(=O)C(=NOC(CC(=O)[O-])C(=O)[O-])c4csc(N)n4)C3SC2)CC2CN(C(=O)c3ccc(O)c(O)c3Cl)CC2C1.[Na+].[Na+] (centres unmarked) [Compound I-41]	

The next lines start with the molecule.

SMILES	Minimum Inhibitory Concentration (MIC) [1, 10] [µg/mL]	Minimum Inhibitory Concentration (MIC) [2, 11] [µg/mL]	Minimum Inhibitory Concentration (MIC) [3, 12] [µg/mL]	Minimum Inhibitory Concentration (MIC) [4] [µg/mL]	Minimum Inhibitory Concentration (MIC) [5, 13] [µg/mL]	also measured
CC(C)(O/N=C(\C(=O)N[C@@H]1C(=O)N2C(C(=O)[O-])=C(C[N+]3(Cc4nnc(-c5ccc(O)c(O)c5Cl)o4)CCCC3)CS[C@H]12)c1csc(N)n1)C(=O)[O-].[Na+] [Compound I-1]						MIC [1, 6]: 1 µg/mL; MIC [2, 7]: 0.25 µg/mL; MIC [3, 8]: 0.25 µg/mL; MIC [4]: 0.063 µg/mL; MIC [5, 9]: 0.25 µg/mL
CC(C)(O/N=C(\C(=O)N[C@@H]1C(=O)N2C(C(=O)[O-])=C(C[N+]34CCC(CC3)N(C(=O)c3ccc(O)c(O)c3Cl)CC4)CS[C@H]12)c1csc(N)n1)C(=O)[O-].[Na+] [Compound I-5]						MIC [1, 6]: 0.5 µg/mL; MIC [2, 7]: 0.25 µg/mL; MIC [3, 8]: 0.125 µg/mL; MIC [4]: 0.063 µg/mL; MIC [5, 9]: 0.5 µg/mL
CC(C)(O/N=C(\C(=O)N[C@@H]1C(=O)N2C(C(=O)[O-])=C(C[N@+]34CC[C@H](C3)N(C(=O)c3ccc(O)c(O)c3Cl)CC4)CS[C@H]12)c1csc(N)n1)C(=O)[O-].[Na+] [Compound I-6]						MIC [1, 6]: 1 µg/mL; MIC [2, 7]: 1 µg/mL; MIC [3, 8]: 0.125 µg/mL; MIC [4]: 0.063 µg/mL; MIC [5, 9]: 0.5 µg/mL
Nc1nc(/C(=N/O[C@@H](CC(=O)[O-])C(=O)[O-])C(=O)N[C@@H]2C(=O)N3C(C(=O)[O-])=C(C[N+]45CCC(CC4)N(C(=O)c4ccc(O)c(O)c4Cl)CC5)CS[C@H]23)cs1.[Na+].[Na+] [Compound I-9]						MIC [1, 6]: 0.5 µg/mL; MIC [2, 7]: 0.125 µg/mL; MIC [3, 8]: 0.125 µg/mL; MIC [4]: 0.063 µg/mL; MIC [5, 9]: 0.25 µg/mL
Nc1nc(C(=NOC(CC(=O)[O-])C(=O)[O-])C(=O)NC2C(=O)N3C(C(=O)[O-])=C(C[N+]45CCCC4CN(C(=O)c4ccc(O)c(O)c4Cl)CC5)CSC23)cs1.[Na+].[Na+] (centres unmarked) [Compound I-14]	1	0.5	0.125	0.125	0.25	
CC(ON=C(C(=O)NC1C(=O)N2C(C(=O)[O-])=C(C[N+]34CCCC3CN(C(=O)c3ccc(O)c(O)c3Cl)CC4)CSC12)c1csc(N)n1)C(=O)[O-].[Na+] (centres unmarked) [Compound I-18]	2	0.5	0.125	0.063	1	
CC(C)(O/N=C(\C(=O)N[C@@H]1C(=O)N2C(C(=O)[O-])=C(C[N+]34CCC(CC3)[C@H](NC(=O)c3ccc(O)c(O)c3Cl)C4)CS[C@H]12)c1csc(N)n1)C(=O)O [Compound I-19]						MIC [1, 6]: 0.5 µg/mL (≈ 0.654 µM); MIC [2, 7]: 0.5 µg/mL (≈ 0.654 µM); MIC [3, 8]: 0.125 µg/mL (≈ 0.164 µM); MIC [4]: 0.125 µg/mL (≈ 0.164 µM); MIC [5, 9]: 0.125 µg/mL (≈ 0.164 µM)
CC(C)(O/N=C(\C(=O)N[C@@H]1C(=O)N2C(C(=O)[O-])=C(C[N+](C)(C)C3CCN(C(=O)c4ccc(O)c(O)c4Cl)CC3)CS[C@H]12)c1csc(N)n1)C(=O)[O-].[Na+] [Compound I-21]	1	0.5	0.125	0.125	1	
CC(ON=C(C(=O)NC1C(=O)N2C(C(=O)[O-])=C(C[N+]3(CCNC(=O)c4ccc(O)c(O)c4Cl)CCCC3)CSC12)c1csc(N)n1)C(=O)[O-].[Na+] (centres unmarked) [Compound I-36]	1	0.5	0.5	0.125	0.25	
CC(C)(O/N=C(\C(=O)N[C@@H]1C(=O)N2C(C(=O)O)=C(C[N+]3(C)[C@@H]4CC[C@H]3C[C@@H](NC(=O)c3cc(O)c(O)cc3Cl)C4)CS[C@H]12)c1csc(N)n1)C(=O)[O-] (some centres unmarked) [II-55]						MIC [1, 14]: 0.5 µg/mL (≈ 0.642 µM); MIC [2, 15]: 0.25 µg/mL (≈ 0.321 µM); MIC [3, 16]: 0.25 µg/mL (≈ 0.321 µM); MIC [5, 17]: 0.5 µg/mL (≈ 0.642 µM)
C[N+]1(CC2=C(C(=O)[O-])N3C(=O)C(NC(=O)C(=NOC(CC(=O)O)C(=O)[O-])c4csc(N)n4)C3SC2)C2CCC1CC(NC(=O)c1cc(O)c(O)cc1Cl)C2.[Na+] (centres unmarked) [II-56]	0.5	0.25	0.25		0.5	
CC(C)(O/N=C(\C(=O)N[C@@H]1C(=O)N2C(C(=O)O)=C(C[N@+]3(C)[C@@H]4CC[C@H]3C[C@@H](NC(=O)c3cc(F)c(O)c(O)c3F)C4)CS[C@H]12)c1csc(N)n1)C(=O)[O-] [III-9]						MIC [1, 14]: 0.5 µg/mL (≈ 0.641 µM); MIC [2, 15]: 0.125 µg/mL (≈ 0.16 µM); MIC [3, 16]: 0.125 µg/mL (≈ 0.16 µM); MIC [5, 17]: 0.25 µg/mL (≈ 0.321 µM)
C[N+]1(CC2=C(C(=O)[O-])N3C(=O)C(NC(=O)C(=NOC(CC(=O)O)C(=O)[O-])c4csc(N)n4)C3SC2)C2CCC1CC(NC(=O)c1cc(F)c(O)c(O)c1F)C2.[Na+] (centres unmarked) [III-10]	0.5	0.125	0.125		0.25	
